From PubChem BioAssay (NCI)
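Cultured in 96-well plates, cells were exposed to test compound for 48 hours across five concentrations. At the TGI there is no net growth.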 Where a SMILES comes first, the peptide text is derived from it. [ ]: non-standard residue; d: D form. The star is where a group is joined. Phe(4-NO2) = N[CH](Cc1ccc([N+](=O)[O-])cc1)C(=O)O; Cbz = O=C(OCc1ccccc1)*

Tests used:
Experiment in all cases: inhibition of tumour cell growth, NCI panel, 48 h
SN12C renal = system: SN12C renal
BT-549 breast = system: BT-549 breast
HCT-116 colon = system: HCT-116 colon
M14 melanoma = system: M14 melanoma
UACC-62 melanoma = system: UACC-62 melanoma
SK-MEL-5 melanoma = system: SK-MEL-5 melanoma
HOP-92 NSCLC = system: HOP-92 NSCLC
SF-268 CNS = system: SF-268 CNS
DU-145 prostate = system: DU-145 prostate
LOX IMVI melanoma = system: LOX IMVI melanoma
MDA-MB-231 breast = system: MDA-MB-231 breast
SK-MEL-28 melanoma = system: SK-MEL-28 melanoma
EKVX NSCLC = system: EKVX NSCLC

| Structure (SMILES) | TGI (SN12C renal) | TGI (BT-549 breast) | TGI (HCT-116 colon) | TGI (M14 melanoma) | TGI (UACC-62 melanoma) | TGI (SK-MEL-5 melanoma) | TGI (HOP-92 NSCLC) | TGI (SF-268 CNS) | TGI (DU-145 prostate) | TGI (LOX IMVI melanoma) | TGI (MDA-MB-231 breast) | TGI (SK-MEL-28 melanoma) | TGI (EKVX NSCLC) |
| --- | --- | --- | --- | --- | --- | --- | --- | --- | --- | --- | --- | --- | --- |
| COc1ccc(N=Nc2c(C)c(C#N)c(=S)n(C3OC(COC(C)=O)C(OC(C)=O)C(OC(C)=O)C3OC(C)=O)c2C)cc1 (stereo not drawn) | > 100 µM | > 100 µM | > 100 µM | > 100 µM | > 100 µM | > 100 µM | 63.5 µM | > 100 µM | > 100 µM | > 100 µM | 71 µM | > 100 µM |  |
| CC(C)(C)OC(=O)[C@@H]1CCC(=S)N1Cc1ccccc1 | > 100 µM | > 100 µM | > 100 µM | > 100 µM | > 100 µM | > 100 µM | > 100 µM |  | > 100 µM | > 100 µM | > 100 µM | > 100 µM | > 100 µM |
| COc1cccc(C(=O)Nc2c3ccccc3nc3ccccc23)c1OC | > 100 µM | > 100 µM | > 100 µM | > 100 µM | > 100 µM | > 100 µM |  | > 100 µM | > 100 µM | > 100 µM | > 100 µM | > 100 µM | > 100 µM |
| C=CC(CBr)CCC(Br)C(C)(C)Br (stereo not drawn) | > 10 µM | > 10 µM | > 10 µM | > 10 µM |  | > 10 µM | > 10 µM | > 10 µM | > 10 µM |  | > 10 µM | > 10 µM | > 10 µM |
| CC1=CC=C2c3ccccc3C=CN2C(=O)C1 | > 100 µM | 56.3 µM | > 100 µM | > 100 µM | > 100 µM | 46.1 µM |  | > 100 µM | > 100 µM | > 100 µM | > 100 µM | > 100 µM | > 100 µM |
| O=C1c2sc(-c3ccc(F)cc3)cc2-n2cccc21 | 49.6 µM | > 100 µM | 58.7 µM | > 100 µM | > 100 µM | > 100 µM |  | 52.1 µM | > 100 µM | > 100 µM | 86.3 µM | > 100 µM | > 100 µM |
| CCOC(=O)CCC(NC(=O)OCc1ccccc1)C(=O)NC(CCC(=O)OCC)C(=O)NC(Cc1ccc([N+](=O)[O-])cc1)C(=O)NC(CCC(=O)OCC)C(=O)NC(CCC(=O)OCC)C(=O)OCC (stereo not drawn) (Cbz-E(OEt)E(OEt)[Phe(4-NO2)]E(OEt)E(OEt)-OEt; configuration not given here) | > 100 µM | > 100 µM | > 100 µM |  | > 100 µM | > 100 µM |  |  | > 100 µM | > 100 µM | > 100 µM | > 100 µM | > 100 µM |
| C1=Nc2ccc(cc2)N=Cc2ccccc2OCc2cccc(n2)COc2ccccc21 | > 100 µM | > 100 µM | > 100 µM | > 100 µM | > 100 µM | > 100 µM | > 100 µM |  | > 100 µM | > 100 µM | > 100 µM |  | > 100 µM |
| CCOC(=O)/C(C=Nc1c(C)n(C)n(-c2ccccc2)c1=O)=C(/O)c1ccccc1 | > 100 µM | > 100 µM | > 100 µM | > 100 µM | > 100 µM | > 100 µM | > 100 µM | > 100 µM | > 100 µM | > 100 µM | > 100 µM | > 100 µM | > 100 µM |
| C/C(=C/c1ccccc1)CN(C(=O)/C=C\Sc1ccccc1)C(C)(C)C | > 100 µM | > 100 µM | > 100 µM | > 100 µM | > 100 µM | > 100 µM | > 71.6 µM | > 38.1 µM | > 100 µM | > 100 µM | > 100 µM | > 100 µM | > 100 µM |
| CC(=O)OCC1OC(n2c(C#N)cc(=O)[nH]c2=O)CC1OC(C)=O (stereo not drawn) | > 100 µM | > 100 µM | > 100 µM | > 100 µM | > 100 µM | > 100 µM | > 100 µM | > 100 µM | > 100 µM | > 100 µM | > 100 µM | > 100 µM | > 100 µM |
| CC(C)(C)N1C(=O)c2ccccc2C1(O)C(F)(F)F (stereo not drawn) | > 100 µM | > 100 µM | > 100 µM | > 100 µM | > 100 µM | > 100 µM | > 100 µM | > 100 µM | > 100 µM | > 100 µM | > 100 µM | > 100 µM | > 100 µM |
| CCc1n[nH]c(=O)n1N1C(=O)CCC1=O | > 100 µM | > 100 µM | > 100 µM | > 100 µM | > 100 µM | > 100 µM |  | > 100 µM | > 100 µM | > 100 µM | > 100 µM | > 100 µM | > 100 µM |
| COc1ccc(C2=Nn3c(nc4sc(C)c(C)c4c3=O)SC2)cc1 | > 100 µM | > 100 µM | > 100 µM |  | > 100 µM | > 100 µM | > 100 µM | > 100 µM | > 100 µM | > 100 µM | > 100 µM | > 100 µM | > 100 µM |
| COc1ccc2oc(=Nc3ccccc3)c(C(N)=O)cc2c1 | > 100 µM | > 100 µM | > 100 µM | > 100 µM |  | > 100 µM | > 100 µM | > 100 µM | > 100 µM | > 100 µM | > 100 µM | > 100 µM | > 100 µM |
| Cc1[nH]n(C2=NCCN2)c(=O)c1C |  | > 100 µM | > 100 µM | > 100 µM | > 100 µM | > 100 µM | > 100 µM | > 100 µM |  | > 100 µM | > 100 µM |  | > 100 µM |
| c1ccc(N=C(N2CCOCC2)N(CCN2CCOCC2)c2ccccc2)cc1 | > 100 µM | > 100 µM | > 100 µM | > 100 µM | > 100 µM | > 100 µM |  | > 100 µM | > 100 µM | > 100 µM | > 100 µM | > 100 µM | > 100 µM |
| Cc1nnc2sc(Cl)nn12 | > 100 µM | 46.7 µM | 26.2 µM | 28.1 µM | 18.9 µM | 25.2 µM |  |  | > 100 µM | 28.5 µM | 54.4 µM | 34.2 µM | 43.9 µM |
